# Earlier results as cited in US20110293714A1, “PHARMACEUTICAL COMPOSITIONS SUITABLE FOR ORAL ADMINISTRATION OF DERIVATIZED INSULIN PEPTIDES” (priority 2008, published 2011).
# Settings: 293.2 Kelvin; static electric fields or relatively low frequencies
row,Compound,"Dielectric constant, ∈*"
1,"CC(O)CCO (stereo not shown) [1,3-butanediol]",28.8
2,"OCCCO [1,3-propanediol]",35.1
3,CCO [Ethanol],25.3
4,CC(C)O [Isopropanol],20.18
5,CO [Methanol],33.0
6,O [Water],80.1

# Same assay, conditions: 303.2 Kelvin; static electric fields or relatively low frequencies
row,"Dielectric constant, ∈*",Compound
1,27.5,"CC(O)CO (stereo not shown) [1,2-propanediol [propylene glycol], 1,2-propanediol]"
